The values that follow come from ChEMBL document CHEMBL3132838, “Synthesis of chromenoindole derivatives from Robinia pseudoacacia” (Medchemcomm, 2013).

Activity calls are given as the source filed them. No cut-off for these calls is given here.

Assay [1] deals with HCT-116. As to the kind of experiment: Cytotoxicity against human p53-positive HCT116 cells assessed as cell viability after 24 hrs by MTT assay. The assay is classed as functional, cell-based. To be noted: HCT-116, 24 h. (In general: Tetrazolium assays rely on reduction of a dye to a coloured formazan, in cell work by metabolically active cells.)
The test system of assay [2] is Radical scavenging activity. The assay is described as follows: Antioxidant activity assessed as DPPH radical scavenging activity. The assay is classed as functional. In general terms: The DPPH test is a chemical assay of radical scavenging.
In assay [3] the test system is HL-60. As to the kind of experiment: Cytotoxicity against human HL60 cells assessed as cell survival at 200 uM after 72 hrs by MTT assay relative to control. Type of assay: functional. To be noted: HL-60, 72 h, read-out: Survival.
The test system of assay [4] is Steinernema feltiae. As to the kind of experiment: Nematicidal activity against Steinernema feltiae assessed as viability up to 200 uM after 48 hrs by microscopic analysis. Type of assay: functional.
For assay [5], the target named is T1, Aromatase (Homo sapiens, UniProt P11511).
T1 sequence (P11511 whole entry): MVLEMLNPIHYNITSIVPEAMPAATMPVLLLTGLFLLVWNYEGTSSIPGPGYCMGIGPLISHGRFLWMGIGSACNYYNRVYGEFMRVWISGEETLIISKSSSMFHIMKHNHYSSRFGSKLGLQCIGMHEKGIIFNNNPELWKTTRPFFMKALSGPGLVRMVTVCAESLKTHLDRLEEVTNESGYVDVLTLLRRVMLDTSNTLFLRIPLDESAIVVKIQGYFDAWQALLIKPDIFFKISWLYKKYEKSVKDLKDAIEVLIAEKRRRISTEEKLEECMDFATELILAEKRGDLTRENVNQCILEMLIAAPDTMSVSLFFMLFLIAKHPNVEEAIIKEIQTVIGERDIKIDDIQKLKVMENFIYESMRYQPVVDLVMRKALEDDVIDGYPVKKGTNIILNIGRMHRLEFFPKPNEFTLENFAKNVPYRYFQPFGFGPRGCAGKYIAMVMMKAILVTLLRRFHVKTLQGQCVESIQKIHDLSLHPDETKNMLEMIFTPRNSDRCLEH
The assay is described as follows: Inhibition of human placental aromatase.

For assay [6], the system named is HL-60. As to the kind of experiment: Cytotoxicity against human HL60 cells assessed as cell survival at 40 uM after 72 hrs by MTT assay relative to control. The assay is classed as functional. Particulars: HL-60, 72 h, read-out: Survival.
Assay [7] relates to HCT-116. The assay is described as follows: Cytotoxicity against human p53-positive HCT116 cells assessed as cell viability up to 100 uM after 24 hrs by MTT assay. Type of assay: functional, cell-based.

Usually IC50 stands for the concentration needed to halve the response being measured. In the case of `COc1ccc2c3c([nH]c2c1)-c1ccc(O)cc1OC3`, the IC50 in assay [1] came to 66.1 µM.
Turning to `COc1ccc2c(c1)N[C@H]1c3ccc(O)cc3OC[C@@H]21` (racemic), the IC50 in assay [2] and in assay [5] was above 300 µM in each case. Further, the viability at 200 µM in assay [3] was 27%. Moreover, the result in assay [4] and in assay [7] was inactive. Also, in assay [6], the viability at 40 µM amounted to 72%.
